Test results: PubChem BioAssay (NCI)
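The compound was tested at five concentrations on cells cultured in 96-well plates, with a 48-hour exposure period. GI50 marks 50% less growth. TGI: concentration producing complete growth inhibition.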

Columns and labels:
Assay in all cases: inhibition of tumour cell growth, NCI panel, 48 h
SR leukemia = system: SR leukemia
OVCAR-8 ovarian = system: OVCAR-8 ovarian
ACHN renal = system: ACHN renal
SW-620 colon = system: SW-620 colon
TK-10 renal = system: TK-10 renal
SN12C renal = system: SN12C renal
K-562 leukemia = system: K-562 leukemia
U251 CNS = system: U251 CNS
SF-539 CNS = system: SF-539 CNS
UACC-62 melanoma = system: UACC-62 melanoma
T-47D breast = system: T-47D breast
OVCAR-4 ovarian = system: OVCAR-4 ovarian
HT29 colon = system: HT29 colon
HCC-2998 colon = system: HCC-2998 colon
LOX IMVI melanoma = system: LOX IMVI melanoma
KM12 colon = system: KM12 colon
MOLT-4 leukemia = system: MOLT-4 leukemia
SK-MEL-2 melanoma = system: SK-MEL-2 melanoma
MCF7 breast = system: MCF7 breast
A498 renal = system: A498 renal
HS 578T breast = system: HS 578T breast
RPMI-8226 leukemia = system: RPMI-8226 leukemia
OVCAR-3 ovarian = system: OVCAR-3 ovarian
CAKI-1 renal = system: CAKI-1 renal
M14 melanoma = system: M14 melanoma
SF-295 CNS = system: SF-295 CNS
NCI-H23 lung = system: NCI-H23 lung
IGROV1 ovarian = system: IGROV1 ovarian
NCI-H460 lung = system: NCI-H460 lung
NCI-H522 lung = system: NCI-H522 lung
UO-31 renal = system: UO-31 renal
MALME-3M melanoma = system: MALME-3M melanoma
MDA-MB-231 breast = system: MDA-MB-231 breast
HCT-15 colon = system: HCT-15 colon
OVCAR-5 ovarian = system: OVCAR-5 ovarian
SK-MEL-5 melanoma = system: SK-MEL-5 melanoma
PC-3 prostate = system: PC-3 prostate
HOP-92 NSCLC = system: HOP-92 NSCLC
HL-60(TB) leukemia = system: HL-60(TB) leukemia
NCI/ADR-RES ovarian = system: NCI/ADR-RES ovarian
SNB-75 CNS = system: SNB-75 CNS
COLO 205 colon = system: COLO 205 colon
BT-549 breast = system: BT-549 breast
SNB-19 CNS = system: SNB-19 CNS
HCT-116 colon = system: HCT-116 colon
SK-OV-3 ovarian = system: SK-OV-3 ovarian
A549 NSCLC = system: A549 NSCLC
CCRF-CEM leukemia = system: CCRF-CEM leukemia
NCI-H226 lung = system: NCI-H226 lung
786-0 renal = system: 786-0 renal
SF-268 CNS = system: SF-268 CNS
HOP-62 NSCLC = system: HOP-62 NSCLC
DU-145 prostate = system: DU-145 prostate
EKVX NSCLC = system: EKVX NSCLC

Compound: Cc1ncc(CCCN(C)C)cc1Nc1ncc2c(n1)-c1ccc(C(F)(F)F)cc1NC(=S)C2
- GI50 (SR leukemia): < 0.01 µM
- TGI (SR leukemia): 3.35 µM
- GI50 (OVCAR-8 ovarian): < 0.0179 µM
- TGI (OVCAR-8 ovarian): 23.1 µM
- GI50 (ACHN renal): 0.0892 µM
- TGI (ACHN renal): > 53.6 µM
- GI50 (SW-620 colon): < 0.01 µM
- TGI (SW-620 colon): 12.3 µM
- GI50 (TK-10 renal): 0.65 µM
- TGI (TK-10 renal): 19.8 µM
- GI50 (SN12C renal): 0.0952 µM
- TGI (SN12C renal): 18.4 µM
- GI50 (K-562 leukemia): < 0.0169 µM
- TGI (K-562 leukemia): > 34 µM
- GI50 (U251 CNS): < 0.0194 µM
- TGI (U251 CNS): 14 µM
- GI50 (SF-539 CNS): 0.0312 µM
- TGI (SF-539 CNS): 0.11 µM
- GI50 (UACC-62 melanoma): 0.0313 µM
- TGI (UACC-62 melanoma): 17.9 µM
- GI50 (T-47D breast): 0.814 µM
- TGI (T-47D breast): 33.8 µM
- GI50 (OVCAR-4 ovarian): 1.22 µM
- TGI (OVCAR-4 ovarian): > 100 µM
- GI50 (HT29 colon): < 0.0168 µM
- TGI (HT29 colon): 10.2 µM
- GI50 (HCC-2998 colon): 0.0135 µM
- TGI (HCC-2998 colon): 10.3 µM
- GI50 (LOX IMVI melanoma): 0.0276 µM
- TGI (LOX IMVI melanoma): 15.1 µM
- GI50 (KM12 colon): < 0.0134 µM
- TGI (KM12 colon): 10.9 µM
- GI50 (MOLT-4 leukemia): < 0.0156 µM
- TGI (MOLT-4 leukemia): 16.6 µM
- GI50 (SK-MEL-2 melanoma): 1.08 µM
- TGI (SK-MEL-2 melanoma): 6.99 µM
- GI50 (MCF7 breast): < 0.0155 µM
- TGI (MCF7 breast): 11.2 µM
- GI50 (A498 renal): 0.0219 µM
- TGI (A498 renal): 0.0769 µM
- GI50 (HS 578T breast): 0.0276 µM
- TGI (HS 578T breast): 1.14 µM
- GI50 (RPMI-8226 leukemia): 0.0434 µM
- TGI (RPMI-8226 leukemia): 21.1 µM
- GI50 (OVCAR-3 ovarian): 0.0582 µM
- TGI (OVCAR-3 ovarian): 15.2 µM
- GI50 (CAKI-1 renal): 0.0779 µM
- TGI (CAKI-1 renal): 5.54 µM
- GI50 (M14 melanoma): < 0.016 µM
- TGI (M14 melanoma): 15.7 µM
- GI50 (SF-295 CNS): < 0.01 µM
- TGI (SF-295 CNS): 2.7 µM
- GI50 (NCI-H23 lung): < 0.0138 µM
- TGI (NCI-H23 lung): 17.1 µM
- GI50 (IGROV1 ovarian): 0.43 µM
- TGI (IGROV1 ovarian): 1.35 µM
- GI50 (NCI-H460 lung): < 0.0178 µM
- TGI (NCI-H460 lung): 11.9 µM
- GI50 (NCI-H522 lung): < 0.01 µM
- TGI (NCI-H522 lung): 18.1 µM
- GI50 (UO-31 renal): 0.494 µM
- TGI (UO-31 renal): 12.5 µM
- GI50 (MALME-3M melanoma): 0.0312 µM
- TGI (MALME-3M melanoma): 23.6 µM
- GI50 (MDA-MB-231 breast): < 0.0153 µM
- TGI (MDA-MB-231 breast): 0.302 µM
- GI50 (HCT-15 colon): 0.0389 µM
- TGI (HCT-15 colon): 15 µM
- GI50 (OVCAR-5 ovarian): < 0.0237 µM
- TGI (OVCAR-5 ovarian): > 51.1 µM
- GI50 (SK-MEL-5 melanoma): < 0.0282 µM
- TGI (SK-MEL-5 melanoma): 4.85 µM
- GI50 (PC-3 prostate): < 0.0207 µM
- TGI (PC-3 prostate): 24.5 µM
- GI50 (HOP-92 NSCLC): 0.0216 µM
- TGI (HOP-92 NSCLC): 0.519 µM
- GI50 (HL-60(TB) leukemia): < 0.0148 µM
- TGI (HL-60(TB) leukemia): 0.872 µM
- GI50 (NCI/ADR-RES ovarian): 0.172 µM
- TGI (NCI/ADR-RES ovarian): > 67.7 µM
- GI50 (SNB-75 CNS): 0.0173 µM
- TGI (SNB-75 CNS): 0.975 µM
- GI50 (COLO 205 colon): < 0.0111 µM
- TGI (COLO 205 colon): < 0.0198 µM
- GI50 (BT-549 breast): 0.768 µM
- TGI (BT-549 breast): 21.8 µM
- GI50 (SNB-19 CNS): 0.0713 µM
- TGI (SNB-19 CNS): 68.9 µM
- GI50 (HCT-116 colon): < 0.0176 µM
- TGI (HCT-116 colon): 14.4 µM
- GI50 (SK-OV-3 ovarian): < 0.0155 µM
- TGI (SK-OV-3 ovarian): 0.448 µM
- GI50 (A549 NSCLC): 0.0104 µM
- TGI (A549 NSCLC): 11.6 µM
- GI50 (CCRF-CEM leukemia): < 0.0134 µM
- TGI (CCRF-CEM leukemia): 10.4 µM
- GI50 (NCI-H226 lung): 0.659 µM
- TGI (NCI-H226 lung): 15.7 µM
- GI50 (786-0 renal): 0.0825 µM
- TGI (786-0 renal): 21.6 µM
- GI50 (SF-268 CNS): < 0.0195 µM
- TGI (SF-268 CNS): 13.8 µM
- GI50 (HOP-62 NSCLC): < 0.0155 µM
- TGI (HOP-62 NSCLC): 1.54 µM

Compound: Cc1cc(C(C)(C)CC(C)(C)C)ccc1OCCOCC[N+](C)(C)Cc1ccccc1
- GI50 (ACHN renal): 3.19 µM
- TGI (ACHN renal): 11.3 µM
- GI50 (DU-145 prostate): 1.66 µM
- TGI (DU-145 prostate): 3.13 µM
- GI50 (UACC-62 melanoma): 0.967 µM
- TGI (UACC-62 melanoma): 2.21 µM
- GI50 (T-47D breast): 0.388 µM
- TGI (T-47D breast): 1.81 µM
- GI50 (HS 578T breast): 1.86 µM
- TGI (HS 578T breast): 5.16 µM
- GI50 (CAKI-1 renal): 10.4 µM
- TGI (CAKI-1 renal): 39 µM
- GI50 (UO-31 renal): 2.25 µM
- TGI (UO-31 renal): 6.65 µM
- GI50 (MDA-MB-231 breast): 1.33 µM
- TGI (MDA-MB-231 breast): 2.75 µM
- GI50 (HCT-15 colon): 9.8 µM
- TGI (HCT-15 colon): 44 µM
- GI50 (OVCAR-5 ovarian): 1.71 µM
- TGI (OVCAR-5 ovarian): 3.45 µM
- GI50 (HOP-92 NSCLC): 1.03 µM
- TGI (HOP-92 NSCLC): 2.46 µM
- GI50 (HL-60(TB) leukemia): 0.436 µM
- TGI (HL-60(TB) leukemia): 1.62 µM
- GI50 (NCI/ADR-RES ovarian): 15.3 µM
- TGI (NCI/ADR-RES ovarian): 51 µM
- GI50 (COLO 205 colon): 1.25 µM
- TGI (COLO 205 colon): 2.64 µM
- GI50 (SK-OV-3 ovarian): 1.44 µM
- TGI (SK-OV-3 ovarian): 2.78 µM
- GI50 (HOP-62 NSCLC): 1.44 µM
- TGI (HOP-62 NSCLC): 2.84 µM
- GI50 (EKVX NSCLC): 1.55 µM
- TGI (EKVX NSCLC): 4.07 µM
